Data as given in patent US20250206727A1, “HETEROCYCLIC SUBSTITUTED AROMATIC COMPOUND, PREPARATION METHOD THEREFOR, HERBICIDAL COMPOSITION AND APPLICATION” (QINGDAO KINGAGROOT CHEMICAL COMPOUND CO., LTD., priority 2022, published 2025).

Legend:
Assay in all cases: Post-emergence test on weeds (greenhouse, spray at 2-3 leaf stage)
Type in all cases: in vivo
Parameters in all cases: key: Level 10: completely dead; Level 9: growth control rate greater than or equal to 90% and less than 100%; Level 8: growth control rate greater than or equal to 80% and less than 90%; Level 7: growth control rate greater than or equal to 70% and less than 80%; Level 6: growth control rate greater than or equal to 60% and less than 70%; Level 5: growth control rate greater than or equal to 50% and less than 60%; Level 4: growth control rate greater than or equal to 40% and less than 50%; Level 3: growth control rate greater than or equal to 30% and less than 40%; Level 2: growth control rate greater than or equal to 20% and less than 30%; Level 1: growth control rate less than 20%; Level 0: no effect
Settings in all cases: 60 g a.i./ha, 3 weeks after application
Amaranthus retroflexus = test system: Amaranthus retroflexus
Text: (§1) The activity level criteria for plant damage (i.e., growth control rate) are as follows: • Level 10: completely dead; • Level 9: growth control rate greater than or equal to 90% and less than 100%; • Level 8: growth control rate greater than or equal to 80% and less than 90%; • Level 7: growth control rate greater than or equal to 70% and less than 80%; • Level 6: growth control rate greater than or equal to 60% and less than 70%; • Level 5: growth control rate greater than or equal to 50% and less than 60%; • Level 4: growth control rate greater than or equal to 40% and less than 50%; • Level 3: growth control rate greater than or equal to 30% and less than 40%; • Level 2: growth control rate greater than or equal to 20% and less than 30%; • Level 1: growth control rate less than 20%; • Level 0: no effect.
(§2) The above growth control rates are fresh weight control rates.
(§3) Monocotyledonous and dicotyledonous weed seeds (Descurainia sophia, Capsella bursa-pastoris, Abutilon theophrasti, Galium spurium, Stellaria media, Lithospermum arvense, Rorippa indica, Alopecurus aequalis, Alopecurus japonicus, Eleusine indica, Beckmannia syzigachne, Sclerochloa dura, Erigeron canadensis, Phleum paniculatum, Veronica polita, Bromus japonicus, Aegilops tauschii, Phalaris arundinacea, Amaranthus retrofexus, Chenopodium, Commelina communis, Cichorium endivia, Convolvulus arvensis, Cirsium arvense, Solanum nigrum, Acalypha australis, Digitaria sanguinalis, Echinochloa crus-galli, Setaria viridis, Setaa pumila, Lepochloa chinensis, Monochona vaginalis, Sagitta trifolia, Schoenoplectiella juncoides, Cypenus rotundus, Cyperus ira, Cyperus difformis, Fimbristylis, Portulaca oleracea, Xanthium sibiricum, Ipomoea nil, Eschenbachia japonica, etc.) and major crop seeds (wheat, maize, paddy rice, soybean, cotton, oilseed rape, millet, sorghum, potato, sesame, castor plant, etc.) were placed in plastic pots filled with soil and then covered with 0.5-2 cm of soil to allow them to grow in a favorable greenhouse environment. Two weeks after sowing, the test plants were treated at the stage of 2-3 leaves. The test compounds of the present invention were individually dissolved with acetone, then added with Tween® 80, with 1.5 L/ha of methyl oleate emulsifiable concentrate as a synergist, diluted into solutions of certain concentrations using certain amount of water, and sprayed to the plants using a spray tower. After drug application, the experimental results on weeds were collected after 3 weeks of cultivation in a greenhouse. The compounds were applied at 500, 250, […], 15, and 7.5 g a.i./ha in triplicate, and the results were averaged.

Abutilon theophrasti = test system: Abutilon theophrasti
Text: as §1, §2, §3

Echinochloa crus-galli = test system: Echinochloa crus-galli
Text: as §1, §2, §3

Digitaria sanguinalis = test system: Digitaria sanguinalis
Text: as §1, §2, §3

Veronica polita = test system: Veronica polita
Text: as §1, §2, §3

Setaria viridis = test system: Setaria viridis
Text: as §1, §2, §3

CCOC(=O)C1(C)ON=C(c2cc(-c3ncc(C)cc3F)c(F)cc2Cl)O1 (stereo not drawn) [Compound 32]
10: activity level (fresh weight growth control rate), Amaranthus retroflexus (Amaranthus retroflexus) | activity level (fresh weight growth control rate), Abutilon theophrasti (Abutilon theophrasti) | activity level (fresh weight growth control rate), Echinochloa crus-galli (Echinochloa crus-galli) | activity level (fresh weight growth control rate), Digitaria sanguinalis (Digitaria sanguinalis) | activity level (fresh weight growth control rate), Veronica polita (Veronica polita) | activity level (fresh weight growth control rate), Setaria viridis (Setaria viridis)

C=CCOC(=O)C1(C)ON=C(c2cc(-c3ncc(C(F)(F)F)cc3Cl)c(F)cc2Cl)O1 (stereo not drawn) [Compound 93]
10: activity level (fresh weight growth control rate), Amaranthus retroflexus (Amaranthus retroflexus) | activity level (fresh weight growth control rate), Abutilon theophrasti (Abutilon theophrasti) | activity level (fresh weight growth control rate), Echinochloa crus-galli (Echinochloa crus-galli) | activity level (fresh weight growth control rate), Digitaria sanguinalis (Digitaria sanguinalis) | activity level (fresh weight growth control rate), Veronica polita (Veronica polita) | activity level (fresh weight growth control rate), Setaria viridis (Setaria viridis)

CSCOC(=O)C1(C)ON=C(c2cc(-c3ncc(C(F)(F)F)cc3Cl)c(F)cc2Cl)O1 (stereo not drawn) [Compound 109]
10: activity level (fresh weight growth control rate), Amaranthus retroflexus (Amaranthus retroflexus) | activity level (fresh weight growth control rate), Abutilon theophrasti (Abutilon theophrasti) | activity level (fresh weight growth control rate), Echinochloa crus-galli (Echinochloa crus-galli) | activity level (fresh weight growth control rate), Digitaria sanguinalis (Digitaria sanguinalis) | activity level (fresh weight growth control rate), Veronica polita (Veronica polita) | activity level (fresh weight growth control rate), Setaria viridis (Setaria viridis)

COCOC(=O)C1(C)ON=C(c2cc(-c3ncc(C(F)(F)F)cc3Cl)c(F)cc2Cl)O1 (stereo not drawn) [Compound 108]
10: activity level (fresh weight growth control rate), Amaranthus retroflexus (Amaranthus retroflexus) | activity level (fresh weight growth control rate), Abutilon theophrasti (Abutilon theophrasti) | activity level (fresh weight growth control rate), Echinochloa crus-galli (Echinochloa crus-galli) | activity level (fresh weight growth control rate), Digitaria sanguinalis (Digitaria sanguinalis) | activity level (fresh weight growth control rate), Veronica polita (Veronica polita) | activity level (fresh weight growth control rate), Setaria viridis (Setaria viridis)

CCCC1(C(=O)OC)ON=C(c2cc(-c3ncc(C(F)(F)F)cc3Cl)c(F)cc2Cl)O1 (stereo not drawn) [Compound 20]
10: activity level (fresh weight growth control rate), Amaranthus retroflexus (Amaranthus retroflexus) | activity level (fresh weight growth control rate), Abutilon theophrasti (Abutilon theophrasti) | activity level (fresh weight growth control rate), Echinochloa crus-galli (Echinochloa crus-galli) | activity level (fresh weight growth control rate), Digitaria sanguinalis (Digitaria sanguinalis) | activity level (fresh weight growth control rate), Veronica polita (Veronica polita) | activity level (fresh weight growth control rate), Setaria viridis (Setaria viridis)

COC(=O)C1(C)ON=C(c2cc(-c3ncc(OC(F)F)cc3Cl)c(F)cc2Cl)O1 (stereo not drawn) [Compound 3]
10: activity level (fresh weight growth control rate), Amaranthus retroflexus (Amaranthus retroflexus) | activity level (fresh weight growth control rate), Abutilon theophrasti (Abutilon theophrasti) | activity level (fresh weight growth control rate), Echinochloa crus-galli (Echinochloa crus-galli) | activity level (fresh weight growth control rate), Digitaria sanguinalis (Digitaria sanguinalis) | activity level (fresh weight growth control rate), Veronica polita (Veronica polita) | activity level (fresh weight growth control rate), Setaria viridis (Setaria viridis)

CC(=NOC(=O)C1(C)ON=C(c2cc(-c3ncc(C(F)(F)F)cc3Cl)c(F)cc2Cl)O1)C1CC1 (racemic) [Compound 172]
10: activity level (fresh weight growth control rate), Amaranthus retroflexus (Amaranthus retroflexus) | activity level (fresh weight growth control rate), Abutilon theophrasti (Abutilon theophrasti) | activity level (fresh weight growth control rate), Echinochloa crus-galli (Echinochloa crus-galli) | activity level (fresh weight growth control rate), Digitaria sanguinalis (Digitaria sanguinalis) | activity level (fresh weight growth control rate), Veronica polita (Veronica polita) | activity level (fresh weight growth control rate), Setaria viridis (Setaria viridis)

CCOC(C)=NOC(=O)C1(C)ON=C(c2cc(-c3ncc(C(F)(F)F)cc3Cl)c(F)cc2Cl)O1 (racemic) [Compound 141]
10: activity level (fresh weight growth control rate), Amaranthus retroflexus (Amaranthus retroflexus) | activity level (fresh weight growth control rate), Abutilon theophrasti (Abutilon theophrasti) | activity level (fresh weight growth control rate), Echinochloa crus-galli (Echinochloa crus-galli) | activity level (fresh weight growth control rate), Digitaria sanguinalis (Digitaria sanguinalis) | activity level (fresh weight growth control rate), Veronica polita (Veronica polita) | activity level (fresh weight growth control rate), Setaria viridis (Setaria viridis)

CCOC(=O)C1(C2CC2)ON=C(c2cc(-c3ncc(C(F)(F)F)cc3Cl)c(F)cc2Cl)O1 (stereo not drawn) [Compound 79]
10: activity level (fresh weight growth control rate), Amaranthus retroflexus (Amaranthus retroflexus) | activity level (fresh weight growth control rate), Abutilon theophrasti (Abutilon theophrasti) | activity level (fresh weight growth control rate), Echinochloa crus-galli (Echinochloa crus-galli) | activity level (fresh weight growth control rate), Digitaria sanguinalis (Digitaria sanguinalis) | activity level (fresh weight growth control rate), Veronica polita (Veronica polita) | activity level (fresh weight growth control rate), Setaria viridis (Setaria viridis)
